Residues, ends and D or L forms follow the SMILES beside them.
Assays:
[1] = Permeability coefficient through artificial membrane in presence of unstirred water layer by PAMPA
[2] = Partition coefficient, log P of the compound; conditions: octanol/water
[3] = Permeability coefficient through artificial membrane in presence of stirred water layer

| Compound | LogP app [1] | logP [2] | Papp ([3]; PAMPA) [×10⁻⁶ cm/s] | LogP app ([3]; artificial membrane) | Papp [1] [×10⁻⁶ cm/s] | LogP app ([3]; PAMPA) |
| --- | --- | --- | --- | --- | --- | --- |
| O=C1N[C@@H](Cc2c[nH]c3ccccc23)C(=O)N[C@H]1Cc1c[nH]c2ccccc12 | -5.04 | 2.04 | – | – | – | – |
| O=C1CNC(=O)[C@H](Cc2c[nH]c3ccccc23)N1 | -6.02 | 0.07 | – | – | – | – |
| NC(=O)[C@@H](N)Cc1c[nH]c2ccccc12 | -5.56 | 0.3 | – | – | – | – |
| CC(=O)N[C@@H](Cc1c[nH]c2ccccc12)C(=O)N[C@H](C(N)=O)C(C)C | -6.18 | 0.73 | – | – | – | – |
| CCc1ccc(C)nc1 | -5.55 | 3.3 | 12.9 | -4.89 | 2.85 | – |
| CC(=O)N[C@H](Cc1c[nH]c2ccccc12)C(=O)N[C@H](C(N)=O)C(C)C | -6.14 | 0.65 | – | – | – | – |
| Cc1ccc(O)c(C)c1 | -4.61 | – | 263 | -3.58 | 24.3 | – |
| O=[N+]([O-])c1cc(Cl)ccc1Cl | -5.11 | 3.03 | 80.7 | -4.09 | 7.78 | – |
| O=C(O)c1c[nH]c2ccccc12 | -6.1 | – | – | – | – | – |
| Nc1ccccc1Cl | -4.48 | – | 246 | -3.63 | 33.1 | – |
| CC(=O)N[C@@H](Cc1ccc(O)cc1)C(=O)N[C@@H](CC(C)C)C(N)=O (Ac-Tyr-Leu-NH2) | -6.54 | 0.32 | – | – | – | – |
| CC(=O)N[C@@H](Cc1ccc(O)cc1)C(=O)N[C@@H](Cc1ccccc1)C(N)=O (Ac-Tyr-Phe-NH2) | – | 0.54 | – | – | – | – |
| NCC(=O)N[C@@H](Cc1c[nH]c2ccccc12)C(N)=O (H-Gly-Trp-NH2) | -6.38 | -0.48 | – | – | – | – |
| NC(=O)[C@H](Cc1c[nH]c2ccccc12)NC(=O)[C@@H](N)Cc1ccccc1 (H-Phe-Trp-NH2) | -5.22 | 1.38 | – | – | – | – |
| CC(C)[C@H](NC(=O)[C@H](C)NC(=O)[C@@H](N)Cc1c[nH]c2ccccc12)C(N)=O (H-Trp-Ala-Val-NH2) | -6.62 | 0.4 | – | – | – | – |
| Oc1ccc(Cl)cc1Cl [2,4-DICHLOROPHENOL] | -4.93 | – | 127 | -3.9 | 11.9 | – |
| Oc1ccccc1Cl [2-CHLOROPHENOL] | -4.3 | – | 15.2 | -4.82 | 50 | – |
| Nc1ccccc1[N+](=O)[O-] [2-NITROANILINE] | -4.54 | – | 229 | -3.64 | 28.6 | – |
| Nc1cccc(Cl)c1 [3-CHLOROANILINE] | -4.44 | – | 261 | -3.58 | 36.7 | – |
| O=[N+]([O-])c1cccc(O)c1 [3-NITRO-PHENOL] | -4.77 | – | 69.4 | -4.16 | 17.1 | – |
| Nc1cccc([N+](=O)[O-])c1 [3-NITROANILINE] | -4.67 | – | 196 | -3.7 | 21.6 | – |
| Nc1ccc(Cl)cc1 [4-CHLOROANILINE] | -4.38 | 1.88 | 258 | -3.59 | 41.8 | – |
| N#Cc1ccc(O)cc1 [4-CYANOPHENOL] | -4.77 | – | 22.3 | -4.65 | 17 | – |
| CC(=O)Nc1ccc(O)cc1 [ACETAMINOPHEN] | -6.04 | – | 2.22 | -5.65 | – | – |
| CC(=O)N[C@@H](Cc1c[nH]c2ccccc12)C(N)=O [ACETYLTRYPTOPHANAMIDE] | -5.72 | 0.42 | – | – | – | – |

| Compound | LogP app [1] | logP [2] | Papp ([3]; PAMPA) [×10⁻⁶ cm/s] | LogP app ([3]; artificial membrane) | Papp [1] [×10⁻⁶ cm/s] | LogP app ([3]; PAMPA) |
| --- | --- | --- | --- | --- | --- | --- |
| Nc1ccccc1 [ANILINE] | -4.12 | – | 306 | -3.51 | 75.9 | – |
| Cc1cc(=O)n(-c2ccccc2)n1C [ANTIPYRINE] | -5.54 | – | – | – | – | – |
| c1ccc(-c2ccccc2)cc1 [BIPHENYL] | -5.95 | 4.01 | 53.3 | – | 1.12 | -4.27 |
| O=C(N[C@H](CO)[C@H](O)c1ccc([N+](=O)[O-])cc1)C(Cl)Cl [CHLORAMPHENICOL] | – | – | 5.75 | – | – | – |
| Cc1cc(C)cc(C(=O)N(NC(=O)c2ccc3c(c2C)CCCO3)C(C)(C)C)c1 [CHROMAFENOZIDE] | -4.78 | 2.7 | – | – | 16.7 | – |
| Clc1cccc(Cl)c1N=C1NCCN1 [CLONIDINE] | -4.98 | 1.43 | 11.4 | – | – | -4.94 |
| C[C@]12C[C@H](O)[C@H]3[C@@H](CCC4=CC(=O)CC[C@@]43C)[C@@H]1CC[C@@H]2C(=O)CO [CORTICOSTERONE] | -4.77 | – | 34.2 | -4.47 | – | – |
| CCOC(=O)c1ccccc1C(=O)OCC [DIETHYL PHTHALATE] | -4.82 | – | – | – | 15.1 | – |
| O=C(O)c1ccccc1Nc1ccccc1 [FENAMIC ACID] | -4.86 | – | 24.3 | -4.61 | 13.8 | – |
| CCC(C)c1ccccc1OC(=O)NC (stereo not drawn) [FENOBUCARB] | -4.91 | – | 131 | -3.88 | 12.4 | – |
| CC(C)(C)N(NC(=O)c1ccc(Cl)cc1)C(=O)c1ccccc1 [HALOFENOZIDE] | -4.76 | – | – | – | 17.2 | – |
| Oc1ccc(O)cc1 [HYDROQUINONE] | -5.14 | – | 4.6 | – | 7.31 | -5.34 |
| O=C(O)Cc1c[nH]c2ccccc12 [INDOLE-3-ACETIC ACID] | -6.4 | – | – | – | – | – |
| O=C(O)CCc1c[nH]c2ccccc12 [INDOLYLPROPIONIC ACID] | -5.68 | – | – | – | – | – |
| CC(CCc1ccccc1)NCC(O)c1ccc(O)c(C(N)=O)c1 (stereo not drawn) [LABETALOL] | -5.18 | – | 5.64 | -5.25 | – | – |
| O=[N+]([O-])c1ccccc1O [NITROPHENOLATE] | -4.24 | – | 216 | -3.36 | 57 | – |
| Cc1ccccc1O [ORTHOCRESOL] | -4.28 | – | 295 | -3.53 | 52.1 | – |
| Oc1ccccc1 [PHENOL] | -4.33 | – | – | – | 47 | -3.83 |
| CC(=O)Nc1ccc(OCC(O)CNC(C)C)cc1 (stereo not drawn) [PRACTOLOL] | -5.98 | – | 0.37 | -6.43 | – | – |
| CNC(=C[N+](=O)[O-])NCCSCc1ccc(CN(C)C)o1 [RANITIDINE] | -6.05 | – | 3 | – | – | -5.52 |
| COP1(=S)OCc2ccccc2O1 (stereo not drawn) [SALITHION] | -5.03 | – | 43.9 | -4.36 | 9.39 | – |
| Cn1c(=O)c2[nH]cnc2n(C)c1=O.O [THEOPHYLLINE] | -5.31 | – | – | – | – | – |
| CCN(CC)C(=O)SCc1ccc(Cl)cc1 [THIOBENCARB] | -4.69 | – | 92.9 | -4.03 | 20.6 | – |
| NCCc1c[nH]c2ccccc12 [TRYPTAMINE] | -5.27 | 1.35 | – | – | – | – |
| OCCc1c[nH]c2ccccc12 [TRYPTOPHOL] | -4.72 | 1.54 | – | – | – | – |

— ChEMBL document CHEMBL1143050, “QSAR study on permeability of hydrophobic compounds with artificial membranes” (Bioorg Med Chem, 2007)
